# Laboratory results taken from PMC4833387 (PLoS ONE, 2016).
# Target: T1, Aurora B kinase (Homo sapiens, UniProt Q96GD4)
# T1 construct: gene AURKB; 6×His-Aurora B/INCENP^(822–918); with INCENP^(822–918)
# Experiment: in vitro […] kinase assay with recombinant complex (histone H3.[…] and MBP substrates); confirmed by IP kinase assay from HeLa lysates
# Type: biochemical
# T1 sequence (Q96GD4 whole entry): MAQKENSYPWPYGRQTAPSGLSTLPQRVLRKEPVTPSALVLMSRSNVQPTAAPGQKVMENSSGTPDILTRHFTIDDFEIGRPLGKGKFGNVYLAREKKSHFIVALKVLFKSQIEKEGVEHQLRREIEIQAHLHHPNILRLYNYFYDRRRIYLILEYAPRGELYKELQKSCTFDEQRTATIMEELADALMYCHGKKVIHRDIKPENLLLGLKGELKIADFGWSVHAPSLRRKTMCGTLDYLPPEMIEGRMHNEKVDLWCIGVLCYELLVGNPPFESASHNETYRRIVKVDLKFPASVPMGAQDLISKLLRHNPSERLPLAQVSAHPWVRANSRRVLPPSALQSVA
# T1 sequence (Q9NQS7 822-918 partner): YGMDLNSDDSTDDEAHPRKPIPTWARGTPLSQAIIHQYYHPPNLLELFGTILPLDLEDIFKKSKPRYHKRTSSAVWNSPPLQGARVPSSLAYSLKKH
structure (smiles),measurement,value
CC(=O)c1cnc2ccc(-c3cc(Cl)c(O)c(Cl)c3)nc2c1N[C@H]1CC[C@H](CN(C)C)CC1 [OTSSP167],IC50,~25 nM
